This test concerns the target PAK5 (Homo sapiens, UniProt Q9P286). The following applies: read-out: % inhibition at 50 nM.

Sequence of PAK5 (Q9P286 whole entry): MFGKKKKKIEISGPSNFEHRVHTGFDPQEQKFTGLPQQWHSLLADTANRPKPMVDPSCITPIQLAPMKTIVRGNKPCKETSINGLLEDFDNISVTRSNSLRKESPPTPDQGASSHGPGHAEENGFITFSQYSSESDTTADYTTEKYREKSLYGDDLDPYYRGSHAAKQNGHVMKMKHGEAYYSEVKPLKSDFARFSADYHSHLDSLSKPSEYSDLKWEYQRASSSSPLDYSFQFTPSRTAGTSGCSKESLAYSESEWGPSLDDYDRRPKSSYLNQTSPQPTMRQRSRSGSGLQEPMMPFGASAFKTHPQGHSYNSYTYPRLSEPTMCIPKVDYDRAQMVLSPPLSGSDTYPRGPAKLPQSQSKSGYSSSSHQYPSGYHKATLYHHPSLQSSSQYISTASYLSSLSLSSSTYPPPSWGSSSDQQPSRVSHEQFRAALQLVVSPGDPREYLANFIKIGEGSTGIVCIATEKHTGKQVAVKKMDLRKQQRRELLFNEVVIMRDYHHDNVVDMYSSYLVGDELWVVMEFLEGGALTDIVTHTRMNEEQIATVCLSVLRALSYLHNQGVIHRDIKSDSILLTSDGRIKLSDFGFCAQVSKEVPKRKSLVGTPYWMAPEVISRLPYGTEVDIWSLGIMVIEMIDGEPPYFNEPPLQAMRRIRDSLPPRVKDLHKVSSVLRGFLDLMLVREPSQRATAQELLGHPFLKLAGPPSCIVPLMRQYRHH

In general, inhibition refers to the percentage by which the read-out fell short of the control. Take `NC(=O)c1cnc(N[C@@H]2CCCC[C@@H]2N)nc1Nc1cccc(-n2nccn2)c1` [BIIB-057]: the inhibition at 0.05 µM is above 50%.

(Values after paper PMC10632405, “A novel in silico scaffold-hopping method for drug repositioning in rare and intractable diseases” (Scientific Reports, 2023).)
